Source: the NIST ThermoML archive (doi:10.1016/j.jct.2006.07.018)
± gives the expanded uncertainty stated by the source.

Test: mn = molality of the nth substance listed, in mol/kg
Details: 350 kPa, Liquid, Vibrating tube method

CSCC[C@H](N)C(=O)O [L-methionine] + O
mass density [kg/m3]
Details	m1 = 0.0125	m1 = 0.025	m1 = 0.05	m1 = 0.0997	m1 = 0.1501	m1 = 0.1929
278.15 K	1000.87 ± 0.06	1001.33 ± 0.06	1002.43 ± 0.07	1005.13 ± 0.07	1007.08 ± 0.06	1008.66 ± 0.06
283.15 K	1000.6 ± 0.06	1001.06 ± 0.06	1002.07 ± 0.07	1004.77 ± 0.07	1006.7 ± 0.06	1008.25 ± 0.06
288.15 K	999.97 ± 0.07	1000.44 ± 0.06	1001.43 ± 0.07	1004.07 ± 0.06	1005.97 ± 0.06	1007.5 ± 0.06
298.15 K	997.89 ± 0.08	998.35 ± 0.06	999.32 ± 0.07	1001.89 ± 0.06	1003.72 ± 0.06	1005.21 ± 0.06
308.15 K	994.85 ± 0.08	995.32 ± 0.06	996.3 ± 0.07	998.76 ± 0.06	1000.54 ± 0.06	1002.01 ± 0.06
318.15 K	991.01 ± 0.08	991.47 ± 0.06	992.35 ± 0.07	994.85 ± 0.07	996.62 ± 0.06	998.08 ± 0.06
328.15 K	986.48 ± 0.08	986.94 ± 0.07	987.79 ± 0.07	990.26 ± 0.07	992 ± 0.06	993.45 ± 0.06
338.15 K	981.32 ± 0.08	981.79 ± 0.07	982.66 ± 0.07	985.05 ± 0.07	986.79 ± 0.07	988.23 ± 0.06
348.15 K	975.6 ± 0.08	976.09 ± 0.07	976.97 ± 0.08	979.29 ± 0.07	981.03 ± 0.07	982.49 ± 0.07
358.15 K	969.38 ± 0.08	969.84 ± 0.08	970.77 ± 0.08	973.02 ± 0.08	974.79 ± 0.07	976.26 ± 0.07
368.15 K	962.63 ± 0.08	963.11 ± 0.08	964.09 ± 0.08	966.29 ± 0.08	968.05 ± 0.08	969.51 ± 0.08
